Measurements as given in paper PMC11058275, “Targeted potent antimicrobial and antitumor oxygen-heterocyclic-based pyran analogues: synthesis and computational studies” (Scientific Reports, 2024).
Read-outs that look alike come from different tables or passages of the source.

Tests used:
[1] = tested on: Bacillus cereus (ATCC 10987); assay: Agar diffusion antibacterial screening (inhibition zone); assay type: cell-based; conditions: ATCC10987, B. cereus, 1 mg/mL, Mueller–Hinton agar, read-out: Diameter of inhibition zone
Procedure: (§1) The antibacterial activity of β-enamionitriles (4a-q) was screened using Mueller–Hinton agar medium for bacteria in an agar diffusion methodology. Ciprofloxacin (1 mg/mL) was the reference antibiotic drug used in the analysis of collections that included four gram-positive species of multi drug resistant pathogenic bacteria: Staphylococcus aureus (MRSA) (ATCC 6539), Staphylococcus aureus (ATCC 6538), Bacillus cereus (ATCC 10987), Bacillus subtilis (ATCC 6633), and two gram-negative species of multi drug resistant pathogenic bacteria Klebsiella pneumonia (ATCC 13883) and Escherichia coli (ATCC 8739). […] Using a 1 mg/mL concentration of compounds (4a-q), the minimum zone of inhibition (IZ, the area around the antimicrobial agent where bacterial growth is prevented) was established in mm ± standard deviation beyond the well diameter (6 mm). […] The synthetic compound's inhibitory effects on evaluation against these organisms are depicted in Fig. 9 and Table 1.
(§2) Compound 4a-q was screened for its in vitro antimicrobial activities against pathogenic bacteria species using the standard antibiotics Ampicillin, Gentamycin and Ketoconazole as reference drugs as reported previously. The minimum inhibitory concentration (MIC) was determined as previously reported. The antimicrobial activities were performed at the Regional Centre for Mycology & Biotechnology (RCMP), Al-Azhar University.

[2] = tested on: Bacillus subtilis (ATCC 6633); assay: as above; assay type: cell-based; conditions: ATCC6633, B. subtilis, 1 mg/mL, Mueller–Hinton agar, read-out: Diameter of inhibition zone
Procedure: as §1, §2

[3] = tested on: Escherichia coli (ATCC 8739); assay: as above; assay type: cell-based; conditions: ATCC8739, E. coli, 1 mg/mL, Mueller–Hinton agar, read-out: Diameter of inhibition zone
Procedure: as §1, §2

[4] = tested on: Klebsiella pneumonia (ATCC 13883); assay: as above; assay type: cell-based; conditions: Klebsiella pneumoniae, ATCC13883, K. pneumonia, 1 mg/mL, Mueller–Hinton agar, read-out: Diameter of inhibition zone
Procedure: as §1, §2

[5] = tested on: Staphylococcus aureus (ATCC 6538); assay: as above; assay type: cell-based; conditions: ATCC6538, S. aureus, 1 mg/mL, Mueller–Hinton agar, read-out: Diameter of inhibition zone
Procedure: as §1, §2

[6] = tested on: Staphylococcus aureus (MRSA) (ATCC 6539); assay: as above; assay type: cell-based; conditions: read-out: Diameter of inhibition zone
Procedure: as §1, §2

[7] = tested on: HCT-116 (human colon cancer); assay: MTT cytotoxicity assay; assay type: cell-based
Excerpt: (§3) The antiproliferative activity of the newly synthesized 1H-benzo[f]chromenes derivatives (4a-q) was examined in three human cancer cell lines: MCF-7 (breast cancer), HCT-116 (human colon cancer), and HepG-2 (hepatocellular carcinoma), as well as the two normal cell lines, HFL-1 (human foetal lung) and WI-38 (human diploid fibroblasts), using the 3-(4,5-dimethylthiazol-2-yl)-2,5-diphenyl tetrazolium bromide (MTT) colorimetric assay[56].
(§4) Compounds 4a-q was initially evaluated for in vitro antitumor activity against three different human cell lines: MCF-7, HCT-116 and HepG-2. In-vitro cytotoxicity evaluation was performed at the Regional Center for Mycology & Biotechnology (RCMP), Al-Azhar University under different concentrations (50, 25, 12.5, 6.25, 3.125, 1.56 and 0 µg/mL); vinblastine and doxorubicin are used as reference cytotoxic compounds.

[8] = tested on: HepG-2 (hepatocellular carcinoma); assay: MTT cytotoxicity assay; assay type: cell-based; conditions: Homo sapiens
Excerpt: as §3, §4

[9] = tested on: HFL-1 (human foetal lung); assay: MTT cytotoxicity assay, normal cells; assay type: cell-based; conditions: read-out: IC50 Normotoxicity HFL-1
Excerpt: as §3, §4

[10] = tested on: WI-38 (human diploid fibroblasts); assay: MTT cytotoxicity assay, normal cells; assay type: cell-based; conditions: read-out: IC50 Normotoxicity WI-38
Excerpt: as §3, §4

MCF-7 (breast cancer) = assay: MTT cytotoxicity assay; conditions: Homo sapiens
Excerpt: as §3, §4

[11] = MTT, 24-h incubation, mean ± standard error, read-out: IC50 Cancerotoxicity HCT-116
[12] = HepG2, MTT, 24-h incubation, mean ± standard error, read-out: IC50 Cancerotoxicity HepG-2
[13] = HFL1, HFL-1 normal cells, MTT, 24-h incubation, mean ± standard error
[14] = WI-38 normal cells, MTT, 24-h incubation, mean ± standard error
[15] = MCF7, 24 h, read-out: IC50 Cancerotoxicity MCF-7

SMILES | zone of inhibition at 1000 µg/mL [1] [mm] | zone of inhibition at 1000 µg/mL [2] [mm] | zone of inhibition at 1000 µg/mL [3] [mm] | zone of inhibition at 1000 µg/mL [4] [mm] | zone of inhibition at 1000 µg/mL [5] [mm] | zone of inhibition at 1000 µg/mL [6] [mm] | IC50 [7, 11] [µM] | IC50 [8, 12] [µM] | IC50 [9, 13] [µM] | IC50 [10, 14] [µM] | melting point [°C] | IC50 (MCF-7 (breast cancer); [15]) [µM] | IC50 ([7]; given in µg/mL, read-out: IC50 HCT-116) [µg/mL] | IC50 ([8]; HepG2, given in µg/mL, read-out: IC50 HepG-2) [µg/mL] | IC50 (MCF-7 (breast cancer); MCF7, read-out: IC50 MCF-7) [µg/mL] | IC50 ([9]; HFL1, 24 h) [µM] | IC50 ([10]; WI-38, 24 h) [µM]
COc1ccc2c3c(ccc2c1)OC(N)=C(C#N)C3c1ccc(Cl)cc1Cl (stereo not shown) [Compound 4j, 3-Amino-1-(2,4-dichlorophenyl)-8-methoxy-1H-benzo[f]chromene-2-carbonitrile] | 8 | 0 | 12 | 14 | 0 | 13 | 5.8 ± 0.16 | 14.1 ± 0.18 | 180.8 ± 0.3 | 177.8 ± 0.3 | 285 to 286 | 2 ± 0.02 |  |  |  |  | 
COc1ccc2c3c(ccc2c1)OC(N)=C(C#N)C3c1cc(Cl)ccc1Cl (stereo not shown) [Compound 4k, 3-Amino-1-(2,5-dichlorophenyl)-8-methoxy-1H-benzo[f]chromene-2-carbonitrile] | 0 | 0 | 13 | 15 | 0 | 12 | 2.5 ± 0.23 | 1.8 ± 0.03 |  |  | 270 to 271 | 6.6 ± 0.4 |  |  |  |  | 
COc1ccc2c3c(ccc2c1)OC(N)=C(C#N)C3c1c(Cl)cccc1Cl (stereo not shown) [Compound 4l] | 8 | 0 | 0 | 14 | 0 | 13 | 21.3 ± 0.01 | 2.3 ± 0.02 |  |  | 313 to 314 | 12.1 ± 0.06 |  |  |  |  | 
COc1ccc2c3c(ccc2c1)OC(N)=C(C#N)C3c1ccc(Cl)c(Cl)c1 (stereo not shown) [Compound 4m, 3-Amino-1-(3,4-dichlorophenyl)-8-methoxy-1H-benzo[f]chromene-2-carbonitrile] | 13 | 0 | 10 | 13 | 0 | 14 | 2.3 ± 0.97 | 1.8 ± 0.06 | 181 ± 0.1 | 175.5 ± 0.2 | 241 to 242 | 1.3 ± 0.21 | 0.9 ± 0.97 | 0.7 ± 0.06 | 0.5 ± 0.21 |  | 
COc1ccc2c3c(ccc2c1)OC(N)=C(C#N)C3c1ccc(OC)c(OC)c1OC (stereo not shown) [Compound 4o, 3-amino-1-(2,3,4-trimethoxyphenyl)-8-methoxy-1H-benzo[f]chromene-2-carbonitrile] | 14 | 0 | 12 | 11 | 10 | 12 | 35.9 ± 0.02 | 17.6 ± 0.05 |  |  | 240 to 241 | 55.3 ± 0.01 |  |  |  |  | 
COc1ccc2c3c(ccc2c1)OC(N)=C(C#N)C3c1cc(OC)c(OC)c(OC)c1 (stereo not shown) [Compound 4p, 3-amino-1-(3,4,5-trimethoxyphenyl)-8-methoxy-1H-benzo[f]chromene-2-carbonitrile] | 15 | 0 | 11 | 12 | 11 | 13 | 91.4 ± 0.01 | 106.5 ± 0.1 |  |  | 258 to 259 | 114.4 ± 0.03 |  |  |  |  | 
COc1ccc2c3c(ccc2c1)OC(N)=C(C#N)C3c1cc(Cl)cc(Cl)c1Cl (stereo not shown) [Compound 4q, 3-amino-1-(2,3,5-trichlorophenyl)-8-methoxy-1H-benzo[f]chromene-2-carbonitrile] | 13 | 10 | 12 | 13 | 10 | 13 | 107 ± 1.6 | 76.5 ± 0.9 |  |  | 259 to 260 | 110.4 ± 0.1 |  |  |  |  | 
C#Cc1cccc(Nc2ncnc3cc(OCCOC)c(OCCOC)cc23)c1 [Erlotinib, N-(3-ethynylphenyl)-6,7-bis(2-methoxyethoxy)-4-quinazolinamine, reference compound] |  |  |  |  |  |  |  |  |  |  |  |  |  |  |  | 14 ± 1.2 | 28.5 ± 0.2
